Data from patent publication US20250197420A1, “MACROCYCLIC COMPOUNDS, COMPOSITIONS, AND METHODS OF USING THEREOF” (Sionna Therapeutics Inc., priority 2022, published 2025).

Legend:
[1] = target: T1, Purified recombinant NBD1 (Homo sapiens, UniProt P13569); test: Aggregation analysis using differential static light scattering (DSLS): thermal stability of NBD1; type: binding; settings: NBD1 0.2 mg/ml; Tagg of compound well minus average Tagg of DMSO control wells
T1 construct: Purified recombinant NBD1 was produced using previously described methods; made in house
Method in brief: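 Recombinant NBD1 at 0.2 mg/ml in Tris/NaCl/MgCl2 buffer with 2 mM ATP, 2 mM DTT, 1% glycerol, pH 7.6, was incubated with compound and heated at 1 °C/min to 70 °C while static light scattering was monitored. Tagg was taken from the curve inflection point and reported as ΔTagg relative to DMSO controls.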

[2] = system: Primary human bronchial epithelial cells from a ΔF508 homozygous CF donor (CF-HBE cells); test: TECC24 recording of CFTR-mediated transepithelial chloride transport, AUC fold over benchmark VX-809 @10 μM; type: cell-based; settings: 48 hours incubation, AUC of forskolin-stimulated IEQ
Description: The effects of a test agent on CFTR-mediated transepithelial chloride transport is measured using TECC24 recording analysis. Test agents are solubilized in DMSO. Solubilized test agents are mixed with incubation medium containing DMEM/F12, Ultroser G (0.5%; Crescent Chemical, catalog #67042), Hyclone Fetal Clone II (2%; GE Healthcare, catalog #SH30066.02), bovine brain extract (0.25%; Lonza, catalog #CC-4098), insulin ([…]), IL-13 (10 ng/mL), hydrocortisone (20 nM), transferrin ([…]), triiodothyronine (500 nM), ethanolamine (250 nM), epinephrine (1.5 μM), phosphoethanolamine (250 nM), and retinoic acid (10 nM). Primary human bronchial epithelial cells from a ΔF508 homozygous CF donor (CF-HBE cells; from University of North Carolina Cystic Fibrosis Tissue Procurement Center), grown on Transwell HTS 24-well cell culture inserts (Costar, catalog #3378), are exposed to test agents or controls dissolved in incubation medium. The CF-HBE cells are cultured at 36.5° C. for 48 hours before TECC24 recordings are performed in the presence or absence of test agent, a positive control or vehicle (DMSO).
Following incubation, the transwell cell culture inserts containing the test agent or control-treated CF-HBE cells are loaded onto a TECC24 apparatus (TECC v7 or MTECC v2; EP Design) to record the transepithelial voltage (VT) and resistance (TEER) using 4 AgCl electrodes per well configured in current-clamp mode. The apical and basolateral bath solutions both contain (in mM) 140 NaCl, 5 KCl, 2 CaCl2), 1 MgCl2, 10 Hepes, and 10 glucose (adjusted to pH 7.4 with NaOH). To inhibit basal Na+ absorption, the ENaC inhibitor benzamil (10 μM) is added to the bath. Then, the adenylate cyclase activator, forskolin (10 μM), is added to the bath to activate CFTR. The forskolin-stimulated Cl− transport is halted by addition of CFTR inhibitor-172 (20 μM) to the bath at the end of the experiment to confirm specificity. VT and TEER recordings are digitally acquired at routine intervals using TECC or MTECC software (EP Design). VT and TEER are transformed into equivalent transepithelial Cl− current (IEQ), and the Area Under the Curve (AUC) of the IEQ time course between forskolin and CFTR inhibitor-172 addition is generated using Excel (Microsoft). Efficacy is expressed as the ratio of the test agent AUC divided by vehicle AUC. EC50s based on AUC are generated using the non-linear regression log(agonist) vs. response function in Prism software (Graphpad) with HillSlope fixed=1.
If a test agent increases the AUC of the forskolin-stimulated IEQ relative to VX-809 in CF-HBE cells, and this increase is inhibited by CFTR inhibitor-172, then the test agent is considered a CFTR corrector. TECC assay efficacy is expressed as the ratio of the test agent AUC divided by VX-809 AUC. As set forth in Table 2 below, a TECC value less than 3 is marked “A”; a value between 3 and 6 is marked “B”; a value between 6 and 20 is marked “C”.

T1 sequence (P13569 423-646 limits assumed): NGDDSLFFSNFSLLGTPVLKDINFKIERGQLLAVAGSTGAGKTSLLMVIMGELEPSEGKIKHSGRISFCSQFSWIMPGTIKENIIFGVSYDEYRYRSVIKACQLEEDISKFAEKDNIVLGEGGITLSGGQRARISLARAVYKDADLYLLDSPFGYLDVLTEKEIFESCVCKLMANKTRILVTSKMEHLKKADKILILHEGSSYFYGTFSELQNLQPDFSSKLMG

Row | Compound | DSLS (ΔTagg) [1] | TECC (test agent AUC divided by VX-809 AUC) [2]
1 | CCOC(=O)Cc1cccc(C2(C)CCCC(C)(C)CN(C)C(=O)CCc3c(c(F)cc4[nH]ccc34)Oc3ccc(F)c(c3)-c3ncc2[nH]3)c1 (single isomer, unassigned) [Compound 64B, ethyl 2-[3-(23,29-difluoro-6,10,10,12-tetramethyl-13-oxo-25-oxa-3,12,20,31-tetrazapentacyclo-[24.3.1.12,5.016,24.017,21]hentriaconta-1(30),2,4,16,18,21,23,26,28-nonaen-6-yl)phenyl]acetate] | A (an ΔTagg value less than or equal to 5 °C is marked “A”) | B (a value between 3 and 6 is marked “B”)
2 | CN1CC(C)(C)CCCC(C)(c2cccc(CC(=O)O)c2)c2cnc([nH]2)-c2cc(ccc2F)Oc2c(F)cc3[nH]ccc3c2CCC1=O (single isomer, unassigned) [Compound 65A, 2-[3-(23,29-difluoro-6,10,10,12-tetramethyl-13-oxo-25-oxa-3,12,20,31-tetrazapentacyclo-[24.3.1.12,5.016,24.017,21]hentriaconta-1(30),2,4,16,18,21,23,26,28-nonaen-6-yl)phenyl]acetic acid] | A (an ΔTagg value less than or equal to 5 °C is marked “A”) | A (a TECC value less than 3 is marked “A”)
3 | CN1CC(C)(C)CCCC(C)(c2cccc(CC(=O)O)c2)c2cnc([nH]2)-c2cc(ccc2F)Oc2c(F)cc3[nH]ccc3c2CCC1=O (single isomer, unassigned) [Compound 65B, 2-[3-(23,29-difluoro-6,10,10,12-tetramethyl-13-oxo-25-oxa-3,12,20,31-tetrazapentacyclo-[24.3.1.12,5.016,24.017,21]hentriaconta-1(30),2,4,16,18,21,23,26,28-nonaen-6-yl)phenyl]acetic acid] | C (a value greater than 10 °C and less than or equal to 25 °C is marked “C”) | A (a TECC value less than 3 is marked “A”)
4 | [2H]C([2H])([2H])C1(c2cccc(CCC(=O)O)c2)CCCC(C)(C)CN(C)C(=O)CCc2c(c(F)cc3[nH]ccc23)Oc2ccc(F)c(c2)-c2ncc1[nH]2 (single isomer, unassigned) [Compound 66A] | A (an ΔTagg value less than or equal to 5 °C is marked “A”) | A (a TECC value less than 3 is marked “A”)
5 | [2H]C([2H])([2H])C1(c2cccc(CCC(=O)O)c2)CCCC(C)(C)CN(C)C(=O)CCc2c(c(F)cc3[nH]ccc23)Oc2ccc(F)c(c2)-c2ncc1[nH]2 (single isomer, unassigned) [Compound 66B] | C (a value greater than 10 °C and less than or equal to 25 °C is marked “C”) | A (a TECC value less than 3 is marked “A”)
6 | CC1(C)CNC(=O)CCc2c(c(F)cc3[nH]ccc23)Oc2ccc(F)c(c2)-c2ncc([nH]2)C(C)(c2cccc(CCC(=O)O)c2)CCOC1 (single isomer, unassigned) [Compound 67A, 3-[3-(24,30-difluoro-6,11,11-trimethyl-14-oxo-9,26-dioxa-3,13,21,32-tetrazapentacyclo[25.3.1.12,5.017,25.018,22]dotriaconta-1(31),2,4,17,19,22,24,27,29-nonaen-6-yl)phenyl]propanoic acid] | C (a value greater than 10 °C and less than or equal to 25 °C is marked “C”) | C (a value between 6 and 20 is marked “C”)
7 | CC1(C)CNC(=O)CCc2c(c(F)cc3[nH]ccc23)Oc2ccc(F)c(c2)-c2ncc([nH]2)C(C)(c2cccc(CCC(=O)O)c2)CCOC1 (single isomer, unassigned) [Compound 67B, 3-[3-(24,30-difluoro-6,11,11-trimethyl-14-oxo-9,26-dioxa-3,13,21,32-tetrazapentacyclo[25.3.1.12,5.017,25.018,22]dotriaconta-1(31),2,4,17,19,22,24,27,29-nonaen-6-yl)phenyl]propanoic acid] | B (a value above 5 °C and less than or equal to 10 °C is marked “B”) | A (a TECC value less than 3 is marked “A”)
8 | CC1(c2cccc(CCC(=O)O)c2)CCCC2(CC2)CNC(=O)CCc2c(c(F)c(F)c3[nH]ccc23)Oc2ccc(F)c(c2)-c2ncc1[nH]2 (single isomer, unassigned) [Compound 69A, 3-[3-(22,23,29-trifluoro-6-methyl-13-oxo-spiro[25-oxa-3,12,20,31-tetrazapentacyclo-[24.3.1.12,5.016,24.017,21]hentriaconta-1(30),2,4,16,18,21,23,26,28-nonaene-10,1′-cyclopropane]-6-yl)phenyl]propanoic acid] | A (an ΔTagg value less than or equal to 5 °C is marked “A”) | B (a value between 3 and 6 is marked “B”)
9 | CC1(c2cccc(CCC(=O)O)c2)CCCC2(CC2)CNC(=O)CCc2c(c(F)c(F)c3[nH]ccc23)Oc2ccc(F)c(c2)-c2ncc1[nH]2 (single isomer, unassigned) [Compound 69B, 3-[3-(22,23,29-trifluoro-6-methyl-13-oxo-spiro[25-oxa-3,12,20,31-tetrazapentacyclo-[24.3.1.12,5.016,24.017,21]hentriaconta-1(30),2,4,16,18,21,23,26,28-nonaene-10,1′-cyclopropane]-6-yl)phenyl]propanoic acid] | A (an ΔTagg value less than or equal to 5 °C is marked “A”) | B (a value between 3 and 6 is marked “B”)
10 | CN1CC(C)(C)CCCC(C)(c2cccc(CCC(=O)O)c2)c2cnc([nH]2)-c2cc(ccc2F)Oc2c(F)cc3[nH]cnc3c2CCC1=O (single isomer, unassigned) [Compound 72A, 3-[3-(23,29-difluoro-6,10,10,12-tetramethyl-13-oxo-25-oxa-3,12,18,20,31-pentazapentacyclo-[24.3.1.12,5.016,24.017,21]hentriaconta-1(30),2,4,16,18,21,23,26,28-nonaen-6-yl)phenyl]propanoic acid] | A (an ΔTagg value less than or equal to 5 °C is marked “A”) | A (a TECC value less than 3 is marked “A”)
11 | CN1CC(C)(C)CCCC(C)(c2cccc(CCC(=O)O)c2)c2cnc([nH]2)-c2cc(ccc2F)Oc2c(F)cc3[nH]cnc3c2CCC1=O (single isomer, unassigned) [Compound 72B, 3-[3-(23,29-difluoro-6,10,10,12-tetramethyl-13-oxo-25-oxa-3,12,18,20,31-pentazapentacyclo-[24.3.1.12,5.016,24.017,21]hentriaconta-1(30),2,4,16,18,21,23,26,28-nonaen-6-yl)phenyl]propanoic acid] | B (a value above 5 °C and less than or equal to 10 °C is marked “B”) | A (a TECC value less than 3 is marked “A”)
12 | CN1CC(C)(C)CCC(C)(c2cccc(CCC(=O)O)c2)c2nc(n(C)n2)-c2cc(ccc2F)Oc2c(F)cc3[nH]ccc3c2CCC1=O (single isomer, unassigned) [Compound 75A, 3-[3-(22,28-difluoro-3,6,9,9,11-pentamethyl-12-oxo-24-oxa-3,4,11,19,30-pentazapentacyclo[23.3.1.12,5.015,23.016,20]triaconta-1(29),2(30),4,15,17,20,22,25,27-nonaen-6-yl)phenyl]propanoic acid] | B (a value above 5 °C and less than or equal to 10 °C is marked “B”) | B (a value between 3 and 6 is marked “B”)
